Results published in patent US11484032B2, “Compositions for inhibition of insect sensing” (Vanderbilt University, priority 2011, dated 2022).

Columns and labels:
AgORco+AgOR10 [1] = target: T1, AgORco+AgOR10 (Anopheles gambiae, UniProt Q7QCC7); test: Fluo-4 Ca2+ imaging, HEK293 cells expressing Orco+AgOR10; type: cell-based; set-up: Orco 10 + Orco Angatonist % Reduction / Orco 10 + Orco Agonist % of control: concentration or dose not given beside the values; settings: for Orco 10 + Orco Potentiator % increase: potentiator mode
T1 construct: expressed in transfected cells
T1 sequence (Q7QCC7 1-478): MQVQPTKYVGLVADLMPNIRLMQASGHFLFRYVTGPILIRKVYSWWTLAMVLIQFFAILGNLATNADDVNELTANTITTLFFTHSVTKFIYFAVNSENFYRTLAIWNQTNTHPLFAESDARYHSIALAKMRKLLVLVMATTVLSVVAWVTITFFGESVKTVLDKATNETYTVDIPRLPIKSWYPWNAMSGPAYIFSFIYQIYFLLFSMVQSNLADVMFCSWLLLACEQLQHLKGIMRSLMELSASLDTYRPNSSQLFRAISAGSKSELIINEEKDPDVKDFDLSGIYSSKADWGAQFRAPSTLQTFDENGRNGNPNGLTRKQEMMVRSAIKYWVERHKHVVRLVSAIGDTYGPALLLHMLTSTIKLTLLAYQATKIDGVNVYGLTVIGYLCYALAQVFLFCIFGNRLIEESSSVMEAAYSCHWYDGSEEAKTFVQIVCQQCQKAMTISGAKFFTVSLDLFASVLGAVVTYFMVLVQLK
Text: (§1) For transient transfections, ORs were cloned into pCl (Promega) and transfected into Flp-In™ T-REx™293 cell lines (Invitrogen) with Fu GENE6 (Roche). For the creation of stable cell lines, a cell culture expression vector capable of expressing Orco in conjunction with a conventional OR, pcDNA5/FRT/TO (Invitrogen) was modified to create two individual expression cassettes each under the control of a separate CMV/Tet02 promoter and a BGH poly-adenylation signal. Cells (as above) were transfected with the modified pcDNA5 plasmid along with POG44 (a Flp recombinase expression plasmid) to facilitate site-specific recombination. Stable cell lines were selected using Hygromycin B (Invitrogen). Cells were maintained in DMEM (Invitrogen) supplemented with 10% Tetracycline-free FBS (HyClone) and 15 ng/ml Blasticidin. For fluorometric Ca2+ measurements, stable lines expressing ORs of interest were seeded at 20,000 cells/well in black wall, poly-lysine coated 384-well cell culture plates (Greiner) and treated with […] tetracycline (Sigma) overnight to induce OR expression. Cells were dye-loaded with 1.8 uM Fluo-4 AM (Molecular Probes), 2.5 mM Probenecid (Molecular Probes) in assay buffer (20 mM HEPES, IX HBSS) for 45 minutes at 37° C. in 5% CO2 prior to each assay. Ca^2+ mobilization was assayed in an FDSS6000 (Hamamatsu). Baseline readings were taken for 20 s before automated addition of compound previously diluted in DMSO and assay buffer. Ratios were described as Maximum/Minimum response and each response was normalized to the maximum responder.
As part of an ongoing, cell based calcium imaging screen for novel small-molecule modulators of AgORs that might disrupt olfactory-driven mosquito behaviors (Rinker et al manuscript in preparation), the inventors identified a number of compounds that activated AgOR10+AgORco-expressing human embryonic kidney (HEK293) cells. One of these compounds, (FIG. 3 A) denoted here as VUAA1, elicited activity consistent with allosteric agonism and was pursued for its novel properties. The identity of VUAA1 was verified using high-resolution mass spectrometry (HRMS) as well as ^1H and ^13C NMR. […] As AgORco was the common element among these functional responses, the inventors postulated that VUAA1 was a potential AgORco agonist.

Orco 28 + Orco [2] = target: T2, Orco 28 + Orco (Anopheles gambiae, UniProt Q7QCC7); test: Orco 28 + Orco: agonist / antagonist / potentiator screen (Table 1); type: cell-based; settings: for Orco 28 + Orco Potentiator % increase: potentiator mode
T2 construct: expressed in transfected cells
T2 sequence (Q7QCC7 1-478): T1 sequence (Q7QCC7 1-478)
Description: (§2) The activity against insect odorant sensory receptors was evaluated for various disclosed compounds, and the data were collected in Table 1.

Orco 28 + Orco [3] = target: T2, Orco 28 + Orco; test: Ca2+ imaging, cells expressing Orco + OR28 (Table 1 head "Orco 28 + Orco"); type: cell-based; settings: for Orco 28 + Orco Potentiator % increase: potentiator mode
Description: as §2

AgORco = target: T3, AgORco (Anopheles gambiae, UniProt Q7QCC7); test: Whole-cell patch clamp, HEK293 cells stably expressing AgORco alone; type: cell-based; settings: AgORco alone cells, holding potential −60 mV
T3 construct: expressed in transfected cells
T3 sequence (Q7QCC7 1-478): T1 sequence (Q7QCC7 1-478)
Description: (§3) Currents from OR-expressing HEK293 cells were amplified with an Axopatch 200b Amplifier (Axon Instruments) and digitized through a Digidata 1322A (Axon Instruments). Electrophysiological data was recorded and analyzed using pCLAMP 10 (Axon Instruments). Electrodes were fabricated from quartz tubing (Sutter Instruments) and pulled to 4-6 MiΩ for whole cell recording. Electrodes were filled with internal solution (120 mM KCl, 30 mM D-glucose, 10 mM HEPES, 2 mM MgCl2, 1.1 mM EGTA, and 0.1 CaCl2) (pH 7.35, 280 mOsm). External (bath) solution contained 130 mM NaCl, 34 mM D-glucose, 10 mM HEPES, 1.5 mM CaCl2), 1.3 mM KH2PO4, and 0.5 MgSO4 (pH 7.35, 300 mOsm). Compounds were diluted in external solution and locally perfused to the recording cell using Perfusion Pencil (Automate Scientific) and controlled by a ValveLink 8.2 controller (Automate Scientific). Whole cell recordings were sampled at 10 kHz and filtered at 5 kHz. Outside-out patches were obtained using 10-15MΩ electrodes pulled from standard glass capillaries (World Precision Instruments) and fire-polished with an MF-830 micro forge (Narishige). Single channel recordings were sampled at 20 kHz. Recordings were reduced to 1 kHz and low-pass filtered at 500 Hz for display and analysis using QuB (SUNY at Buffalo).
(§4) To test the hypothesis that VUAA1 directly agonized AgORco, whole-cell patch clamp responses were examined in AgORco+AgOR10 expressing cells as well as HEK293 cells stably expressing AgORco alone. […] The VUAA1-dependent currents in AgORco+AgOR10 cells resembled those resulting from application of benzaldehyde, an orthosteric agonist of AgOR10 (FIG. 3C) (Wang, 2010; Carey, 2010). […] To investigate the specificity of VUAA1 agonism, the inventors transiently transfected HEK cells with the AgORco orthologs of Drosophila melanogaster and Heliothis virescens, DmORco and HvOR2 respectively.

AgORco+AgOR10 [4] = target: T1, AgORco+AgOR10; test: Whole-cell patch clamp, HEK293 cells expressing AgORco+AgOR10; type: cell-based; settings: AgORco+AgOR10 cells, holding potential −60 mV
Description: as §3, §4

AgOrco+AgOR65 = target: T4, AgOrco+AgOR65 (Anopheles gambiae, UniProt Q7QCC7); test: Ca2+ imaging, HEK cells expressing AgOrco+AgOR65; type: cell-based
T4 construct: expressed in transfected cells
T4 sequence (Q7QCC7 1-478): T1 sequence (Q7QCC7 1-478)
Text: as §1
For VUAA0, a single methyl from the para position of the aniline ring (compound VUAA0, FIG. 44) in the VUAA1 structure was removed. […] In VUAA0.5, unsaturation was introduced at the para position of the aniline ring (VUAA0.5, FIG. 44). […] In VUAA2, the ethyl group of the aniline ring in VUAA1 was replaced with an isopropyl group (VUAA2, FIG. 44).

AgORco+AgOR48 = target: T5, AgORco+AgOR48 (Anopheles gambiae, UniProt Q7QCC7); test: Ca2+ imaging, HEK cells expressing AgORco+AgOR48; type: cell-based; settings: AgORco co-expressed with AgOR48; read-out: EC50
T5 construct: expressed in transfected cells
T5 sequence (Q7QCC7 1-478): T1 sequence (Q7QCC7 1-478)
Text: as §1
The ability of VUAA1 and its analogs to agonize representative ORco proteins from dipteran (Anopheles gambiae, AgORco), lepidopteran (Heliothis virescens, HvORco) and hymenopteran (Harpegnathos saltator, HsORco) orders was tested. […] Furthermore, the hierarchy of VUAA series potency was the same, irrespective of whether AgORco was co-expressed with AgOR65 or AgOR48 tuning ORs (FIG. 45). Without wishing to be bound by a particular theory, odorant ligands are thought to activate the complex via interaction with the tuning ORx and thereby affect ORco/ORx channel properties. […] These findings indicate VUAA-class OR co-modulators are viable compounds for further development as broad-spectrum insect control strategies, and VUAA4 can provide an advance in the pharmacological profile of VUAA-based compounds.

[5] = test system: An. gambiae early 4th instar larvae; test: Larval mosquito movement assay (Daniovision-Ethovision); type: in vivo, Anopheles gambiae
Description: Next, the agonist activity of the VUAA compound class was tested to establish the involvement of AgORs in mediating larval ortho and klinokinesis in response to a series of semiochemicals using larval-stage An. gambiae mosquitoes. Mosquito larvae are aquatic, thus compounds can be delivered to individual early 4th instar larvae regardless of volatility. The assay currently utilizes 6-well plates and the Daniovision-Ethovision platform (Noldus Inc.) to simultaneously record and analyze 6 larvae, thereby providing modest rates of throughput and a high degree of reproducibility. In these assays, larval movements are automatically quantified over 5-minute period and control larvae consistently move the same number of times in the presence or absence of 0.1% DMSO (p=0.80, n=31) (FIGS. 42-43). Furthermore, the effects of the widely-used synthetic insect repellent N, N-diethyl-meta-toluamide (DEET) was tested and DEET was also observed to increase larval movements at and above a threshold concentration of 5×10^−4M (p=0.013, n=27) (FIGS. 42-43).

Orco 28 + Orco [6] = target: T2, Orco 28 + Orco; test: Activity against insect odorant sensory receptors, Orco 28 + Orco (Table 1); type: cell-based; settings: potentiator mode
Description: as §2

CCn1c(SCc2nc3ccccc3[nH]2)nnc1-c1cccnc1
Orco 10 + Orco Potentiator % increase (AgORco+AgOR10 [1]): 7.5% | Orco 28 + Orco Potentiator % increase (Orco 28 + Orco [2]): 15.1%

O=C(CSc1nnc(-c2cccnc2)n1Cc1ccccc1)Nc1ccc(F)cc1
Orco 28 + Orco Potentiator % increase (Orco 28 + Orco [3]): 16.12%

Nc1ncnc2c1nc(Br)n2[C@@H]1O[C@@H]2COP(=O)(O)O[C@H]2[C@H]1O [8-Br cAMP, 8-Br-cAMP]
whole-cell current response (AgORco): unable to evoke whole-cell currents | whole-cell current response (AgORco+AgOR10 [4]): unable to evoke whole-cell currents

COC(=O)c1ccccc1NC(=O)CSc1nnc(-c2cccnc2)n1C
Orco 10 + Orco Potentiator % increase (AgORco+AgOR10 [1]): 15.15% | Orco 28 + Orco Potentiator % increase (Orco 28 + Orco [2]): 18.02%

CC(C)c1ccc(NC(=O)CSc2nnc(-c3ccncc3)n2C2CC2)cc1 [VUAA4, 2-((4-cyclopropyl-5-(pyridin-4-yl)-4H-1,2,4-triazol-3-yl)thio)-N-(4-isopropylphenyl)acetamide]
improvement in agonist potency compared to VUAA1 (AgOrco+AgOR65; AgOrco+AgOR65): 10 fold | maximum response relative to earlier VUAA compounds (AgOrco+AgOR65; AgOrco+AgOR65): additional improvement in the maximum response when compared to VUAA1 | EC50 (AgOrco+AgOR65; heteromeric OR channels AgOrco+AgOR65, read-out: EC50): 2.1 µM | EC50 (AgORco+AgOR48): 1.7 µM | larval movement at the highest concentration ([5]; 10^−5M): Reduced larval movement | larval movement response ([5]; 10^−8M): absence of response | larval behavioral (movement) response ([5]; compared with DMSO controls or VUAA1): higher levels of movement | lower response threshold compared to VUAA1 ([5]; in vivo): 5 fold | threshold concentration for increased larval movement ([5]; movements over 5-minute period): 1 nM

O=C(CSc1nnc(-c2cccnc2)n1CCc1ccccc1)NCc1ccccc1
Orco 28 + Orco Potentiator % increase (Orco 28 + Orco [3]): 15.9%

O=C(CSc1nnc(-c2cccnc2)n1-c1ccc(Br)cc1)c1c[nH]c2ccccc12
Orco 28 + Orco Potentiator % increase (Orco 28 + Orco [3]): 19.9%

Cc1ccc(NC(=O)CSc2nnc(-c3cccnc3)n2C)c(C)c1
Orco 28 + Orco Potentiator % increase (Orco 28 + Orco [2]): 12.63%

CCn1c(Cc2ccccc2)nnc1SCC(=O)Nc1ccc(OC)cc1
Orco 28 + Orco Potentiator % increase (Orco 28 + Orco [6]): 12.7%

Nc1nc2c(nc(Br)n2[C@@H]2O[C@@H]3COP(=O)(O)O[C@H]3[C@H]2O)c(=O)[nH]1 [8-Br cGMP, 8-Br-cGMP]
whole-cell current response (AgORco): unable to evoke whole-cell currents | whole-cell current response (AgORco+AgOR10 [4]): unable to evoke whole-cell currents

CCOc1ccccc1-n1c(SCC(=O)c2cccc([N+](=O)[O-])c2)nnc1-c1cccnc1
Orco 10 + Orco Angatonist % Reduction (AgORco+AgOR10 [1]; Orco 10 + Orco, antagonist mode): 22.28% | Orco 28 + Orco Antagonist % Reduction (Orco 28 + Orco [3]; antagonist mode): 25.53%

Cc1cc(C)c(C(=O)CSc2nnc(-c3cccnc3)n2C)c(C)c1
Orco 28 + Orco Antagonist % Reduction (Orco 28 + Orco [2]; antagonist mode): 18.21%
